Laboratory results: US20250230131A1, “NOVEL IONIZABLE LIPID AND LIPID NANOPARTICLE COMPOSITION USING SAME” (MediciBIO Co., Ltd, priority 2022, published 2025)

Key:
[1] = Gene encapsulation efficiency, Quant-iT Ribogreen RNA Reagent and Kit; format: physicochemical; conditions: lipid nanoparticles, TE buffer vs 2% Triton-TE buffer
Description: To determine a gene encapsulation efficiency of lipid nanoparticles, the Quant-iT™ Ribogreen™ RNA Reagent and Kit was used. A stock solution for the calibration curve was prepared by taking 5 μL of the ribosomal RNA standard (100 μg/mL in TE buffer) and diluting it with either 245 μL of TE buffer or 0.4% Triton-TE buffer, respectively. Aliquots of 2, 5, 10, 25, and 50 μL of the stock solution were taken, diluted with TE buffer or 0.4% Triton-TE buffer to achieve a total volume of 100 μL, and then mixed with 100 μL of Quant-iT™ Ribogreen™ RNA Reagent; the fluorescence intensity (excitation 475 nm and emission 500˜550 nm) was measured to create a calibration curve. A volume of 5 μL of the nanoparticle solution prepared in Example 2 was taken and diluted with 245 μL of TE buffer (10 mM Tris-HCl, 1 mM EDTA, pH 7.5 in DEPC-treated water). After 50 μL of TE buffer or 50 μL of 2% Triton-TE buffer was added to 50 μL of the diluted nanoparticle solution, respectively, the mixture was incubated at 37° C. for about 10 minutes. Afterwards, 40 μL of each mixture was transferred to a microplate, and 60 μL of TE buffer and 100 μL of Quant-iT™ Ribogreen™ RNA Reagent were added sequentially to measure the fluorescence intensity. After calculating the gene dosage (T0) in the TE buffer and the gene dosage (T2) in the 2% Triton-TE buffer by substituting the measured fluorescence intensity into the calibration curve, the gene encapsulation efficiency was calculated using the following Mathematical Equation 1.

[2] = Surface charge (zeta potential) of lipid nanoparticles; format: physicochemical; conditions: diluted with PBS to mRNA 1 μg/mL
Description: (§1) The size and surface charge of lipid nanoparticles according to the ionizable lipid prepared in Example 1 were measured. To measure the size of the lipid nanoparticles, dilution was conducted using PBS to reach the concentration of mRNA contained in each lipid nanoparticle to 1 μg/mL, and Dynamic Light Scattering (DLS) of Malvern Zetasizer Nano (Malvern Instruments, UK) was applied to measure the diameter and a polydispersity index (hereinafter referred to as PDI) of lipid nanoparticles. In addition, in order to measure the surface charge of lipid nanoparticles, dilution was conducted using PBS to reach the concentration of mRNA contained in each lipid nanoparticle to 1 μg/mL, and the surface charge (zeta potential) was measured using the same equipment as above.

[3] = Size (diameter) and PDI of lipid nanoparticles by Dynamic Light Scattering; format: physicochemical; conditions: lipid nanoparticles of the ionizable lipid; diluted with PBS to mRNA 1 μg/mL; DLS
Description: as §1

HeLa cells = test: Intracellular gene delivery efficacy of FLuc mRNA-LNP (luciferase expression); format: cell-based, human; conditions: 0.25 μg/ml encapsulated FLuc mRNA, 6 hours
Description: To determine the intracellular gene delivery efficacy of lipid nanoparticles, lipid nanoparticles encapsulated with FLuc mRNA(Fluc mRNA-LNP) were used. To evaluate the gene delivery efficacy, HeLa cells (Korea Cell Line Bank, Seoul), human cervical cancer cell lines expressing low-density lipoprotein (LDL) receptors on the cell surface, were used, and cultured with the MEM medium containing 10% fetal bovine serum and penicillin/streptomycin at 37° C. in the presence of 5% CO2. HeLa cell lines were seeded at 2×10^4 cells per well in a 96-well plate, and after 16˜24 hours, the cells were treated with lipid nanoparticles at a concentration of 0.25 μg/ml based on encapsulated mRNA, in a total volume of 100 μl MEM medium per well in the absence or the presence of 10% fetal bovine serum (FBS).
To measure the expression of intracellular luciferase after FLuc mRNA delivery by lipid nanoparticles, the cells were washed with PBS after 6 hours of treatment. Then, and 100 μl of Glo-Lysis Buffer (Promega, WI, USA) was added to lyse the cells at room temperature for 5 minutes. The lysed cells were added with 100 μl of Steady-Glo™ Luciferase Assay solution (Promega) in a 1:1 ratio, left at room temperature for 5 minutes, and then transferred to a 96-well white plate. Luminescent values were detected using a GloMax Discover microplate reader (Promega). Recombinant luciferase (Promega) was used as the standard material to generate the calibration curve, which was used to determine the luciferase concentration (pg/ml) in the samples.

[4] = test system: mice of the C57BL/6 lineage; test: Gene delivery efficiency in vivo, intravenous injection, liver luciferase expression; conditions: C57BL/6 mice, after 4 hours
Description: (§2) In order to identify the gene delivery efficacy and distribution of lipid nanoparticles in vivo, lipid nanoparticles were injected into 7-week-old mice of the C57BL/6 lineage either intravenously or intramuscularly in the thigh. The liver was extracted in the case of intravenous injection and the organs including the femoral muscle were extracted in the case of intramuscular injection by sacrificing the mice after 4 hours.
(§3) To determine the level of luciferase expression in tissue samples, the tissue sections were weighed and transferred to a tube containing 3 mm metal beads, and a homogenized by adding 500 μl of Glo-Lysis Buffer (Promega) per 50 mg of tissue. The supernatant from the centrifuged homogenates was collected and diluted with the Glo-Lysis Buffer to an appropriate ratio. The diluted homogenates and the Steady-Glo Luciferase Assay solution were then mixed in a 1:1 ratio, with 50 μl of each. After a 5-minute incubation, the luminescence values of luciferase were measured using the same method as described in Example 3-1, and the expression levels (ng/g tissue) of luciferase were calculated.

[5] = test system: mice of the C57BL/6 lineage; test: Gene delivery efficiency in vivo, intramuscular injection in the thigh, muscle luciferase expression; conditions: femoral muscle, C57BL/6 mice, after 4 hours
Description: as §2, §3

Row | Compound | Gene encapsulation efficiency [1] [%] | Surface Charge [2] | PDI [3] | Particle size [3] [nm] | Luciferase expression level (Mean ± SD) (HeLa cells; 10% FBS) | Luciferase expression level (Mean ± SD) (HeLa cells; w/o FBS) | Luciferase expression level (Mean ± SD) [4] | Luciferase expression level (Mean ± SD) [5] [ng/g]
1 | CCCCCCCCC(CCCCCC)C(=O)OCCCCCCN(CCCCCCOC(=O)C(CCCCCC)CCCCCCCC)Cc1ccc(N)cc1 (centres unmarked) [Compound 3, ((4-aminobenzyl)azanediyl)bis(hexane-6,1-diyl) bis(2-hexyldecanoate)] | 93.8 | −1.4 mV | 0.18 | 78 |  |  |  | 
2 | CCCCCCCCC(CCCCCC)C(=O)OCCCCCCN(CCCCCCOC(=O)C(CCCCCC)CCCCCCCC)CCc1ccc(N)nc1 (centres unmarked) [Compound 4, ((2-(6-aminopyridin-3-yl)ethyl)azanediyl)bis(hexane-6,1-diyl) bis(2-hexyldecanoate)] | 78.2 | +2.0 mV | 0.13 | 84 |  |  | 6,844 ± 2,052 ng/g | 
3 | CCCCCCCCC(CCCCCC)C(=O)OCCCCCCN(CCCCCCOC(=O)C(CCCCCC)CCCCCCCC)CCCn1cc(C)nc1C (centres unmarked) [Compound 6, ((3-(2,4-dimethyl-1H-imidazol-1-yl)propyl)azanediyl)bis(hexane-6,1-diyl)bis(2-hexyldecanoate)] |  |  |  |  |  |  | 1,172 ± 99 ng/g | 358 ± 74

Now from value to molecule, other results behind:

Row | Gene encapsulation efficiency [1] [%] | Surface Charge [2] | PDI [3] | Particle size [3] [nm] | Compound | Luciferase expression level (Mean ± SD) (HeLa cells; 10% FBS) | Luciferase expression level (Mean ± SD) (HeLa cells; w/o FBS) | Luciferase expression level (Mean ± SD) [4] | Luciferase expression level (Mean ± SD) [5] [ng/g]
4 | 99.7 | +29.1 mV | 0.09 | 121 | CCCCCCCCC(CCCCCC)C(=O)OCCCCCCN(CCCCCCOC(=O)C(CCCCCC)CCCCCCCC)CCC1CCNCC1 (centres unmarked) [Compound 1, ((2-(piperidin-4-yl)ethyl)azanediyl)bis(hexane-6,1-diyl) bis(2-hexyldecanoate)] | 16,060 ± 102 pg/ml | 16,685 ± 646 pg/ml |  | 
5 | 94.9 | +28.1 mV | 0.12 | 106 | CCCCCCCCC(CCCCCC)C(=O)OCCCCCCN(CCCCCCOC(=O)C(CCCCCC)CCCCCCCC)CCN1CCNCC1 (centres unmarked) [Compound 2, ((2-(piperazin-1-yl)ethyl)azanediyl)bis(hexane-6,1-diyl) bis(2-hexyldecanoate)] | 8,492 ± 2,375 pg/ml | 15,270 ± 2,273 pg/ml |  | 
6 | 93.5 | +19.9 mV | 0.08 | 104 | CCCCCCCCC(CCCCCC)C(=O)OCCCCCCN(CCCCCCOC(=O)C(CCCCCC)CCCCCCCC)CCCn1ccnc1C (centres unmarked) [Compound 5, ((3-(2-methyl-1H-imidazol-1-yl)propyl)azanediyl)bis(hexane-6,1-diyl) bis(2-hexyldecanoate)] |  |  | 2,582 ± 745 ng/g | 651 ± 158
